In ChEMBL document CHEMBL1909046, “DrugMatrix in vitro pharmacology data”:

Tests used:
[1] = biological target: T1, Cholecystokinin receptor type A (Homo sapiens, UniProt P32238); format: cell membranes, Membrane; details: 1321-n1; further: in other assays of this panel Not Active means under 50% inhibition at 10 µM
T1 sequence (P32238 whole entry): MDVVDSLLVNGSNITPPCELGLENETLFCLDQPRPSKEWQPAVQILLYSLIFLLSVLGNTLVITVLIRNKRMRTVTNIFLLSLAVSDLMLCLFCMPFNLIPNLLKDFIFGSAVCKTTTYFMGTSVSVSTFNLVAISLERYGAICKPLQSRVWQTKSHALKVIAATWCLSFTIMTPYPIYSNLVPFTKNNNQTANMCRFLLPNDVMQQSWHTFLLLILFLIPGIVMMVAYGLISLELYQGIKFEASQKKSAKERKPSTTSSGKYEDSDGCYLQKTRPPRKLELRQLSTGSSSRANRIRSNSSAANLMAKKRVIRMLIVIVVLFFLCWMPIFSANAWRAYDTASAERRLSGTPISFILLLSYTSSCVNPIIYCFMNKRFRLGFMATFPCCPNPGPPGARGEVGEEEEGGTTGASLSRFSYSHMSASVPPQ

[2] = DRUGMATRIX: Glutamate, NMDA, Agonism radioligand binding (ligand: [3H] CGP-39653); format: cell membranes, Rattus norvegicus, Wistar, Cerebral cortex, Membrane; details: Not Active = under 50% inhibition at 10 µM
[3] = biological target: T2, Muscarinic acetylcholine receptor M4 (Homo sapiens, UniProt P08173); format: cell membranes, CHO-K1, Membrane; details: cho-k1; further: in other assays of this panel Not Active means under 50% inhibition at 10 µM
T2 sequence (P08173 whole entry): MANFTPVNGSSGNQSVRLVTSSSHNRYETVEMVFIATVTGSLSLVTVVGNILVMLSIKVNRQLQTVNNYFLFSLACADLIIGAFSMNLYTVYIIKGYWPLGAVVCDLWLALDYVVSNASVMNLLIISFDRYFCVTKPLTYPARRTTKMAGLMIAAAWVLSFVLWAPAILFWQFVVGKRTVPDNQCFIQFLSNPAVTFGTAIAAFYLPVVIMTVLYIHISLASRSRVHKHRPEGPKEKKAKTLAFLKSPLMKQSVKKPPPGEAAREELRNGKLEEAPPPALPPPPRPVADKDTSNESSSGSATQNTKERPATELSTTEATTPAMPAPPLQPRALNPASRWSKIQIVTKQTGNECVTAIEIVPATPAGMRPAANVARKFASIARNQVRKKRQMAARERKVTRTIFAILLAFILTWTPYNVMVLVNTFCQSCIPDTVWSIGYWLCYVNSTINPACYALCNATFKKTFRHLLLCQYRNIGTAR

[4] = biological target: T3, Neuropeptide Y receptor type 2 (Homo sapiens, UniProt P49146); format: cell membranes, Membrane; details: kan-ts; further: in other assays of this panel Not Active means under 50% inhibition at 10 µM
T3 sequence (P49146 whole entry): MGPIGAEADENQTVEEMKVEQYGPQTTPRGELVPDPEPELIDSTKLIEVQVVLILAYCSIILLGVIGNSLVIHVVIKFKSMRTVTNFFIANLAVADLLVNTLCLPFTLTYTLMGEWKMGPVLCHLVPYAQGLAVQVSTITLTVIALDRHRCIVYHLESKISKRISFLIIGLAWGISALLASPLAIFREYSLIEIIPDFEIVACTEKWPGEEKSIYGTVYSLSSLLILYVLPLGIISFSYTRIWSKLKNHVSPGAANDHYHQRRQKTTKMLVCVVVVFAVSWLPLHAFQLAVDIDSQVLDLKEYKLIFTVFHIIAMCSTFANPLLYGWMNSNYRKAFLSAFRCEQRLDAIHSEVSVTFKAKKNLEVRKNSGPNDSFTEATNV

[5] = biological target: Epidermal growth factor receptor (Homo sapiens, UniProt P00533); experiment: DRUGMATRIX: Protein Tyrosine Kinase, EGF Receptor enzyme inhibition (substrate: Poly(Glu:Tyr)); format: cell-based, Insect cells; details: insect cells; Not Active = under 50% inhibition at 10 µM
[6] = biological target: 5-hydroxytryptamine receptor 1B (Rattus norvegicus, UniProt P28564); format: cell membranes, Wistar, Cerebral cortex, Membrane; further: in other assays of this panel Not Active means under 50% inhibition at 10 µM
5-hydroxytryptamine receptor 1B, sequence (P28564 whole entry): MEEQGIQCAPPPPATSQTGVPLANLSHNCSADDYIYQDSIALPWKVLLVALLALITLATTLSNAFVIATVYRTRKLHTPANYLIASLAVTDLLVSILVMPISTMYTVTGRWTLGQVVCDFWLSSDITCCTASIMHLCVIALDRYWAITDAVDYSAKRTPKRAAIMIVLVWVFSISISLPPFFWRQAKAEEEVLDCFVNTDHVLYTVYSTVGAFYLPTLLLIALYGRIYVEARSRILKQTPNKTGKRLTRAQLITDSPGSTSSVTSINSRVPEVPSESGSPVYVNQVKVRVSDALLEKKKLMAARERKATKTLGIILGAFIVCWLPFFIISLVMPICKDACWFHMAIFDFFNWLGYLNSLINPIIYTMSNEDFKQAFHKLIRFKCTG

Epidermal growth factor receptor, sequence (P00533 whole entry): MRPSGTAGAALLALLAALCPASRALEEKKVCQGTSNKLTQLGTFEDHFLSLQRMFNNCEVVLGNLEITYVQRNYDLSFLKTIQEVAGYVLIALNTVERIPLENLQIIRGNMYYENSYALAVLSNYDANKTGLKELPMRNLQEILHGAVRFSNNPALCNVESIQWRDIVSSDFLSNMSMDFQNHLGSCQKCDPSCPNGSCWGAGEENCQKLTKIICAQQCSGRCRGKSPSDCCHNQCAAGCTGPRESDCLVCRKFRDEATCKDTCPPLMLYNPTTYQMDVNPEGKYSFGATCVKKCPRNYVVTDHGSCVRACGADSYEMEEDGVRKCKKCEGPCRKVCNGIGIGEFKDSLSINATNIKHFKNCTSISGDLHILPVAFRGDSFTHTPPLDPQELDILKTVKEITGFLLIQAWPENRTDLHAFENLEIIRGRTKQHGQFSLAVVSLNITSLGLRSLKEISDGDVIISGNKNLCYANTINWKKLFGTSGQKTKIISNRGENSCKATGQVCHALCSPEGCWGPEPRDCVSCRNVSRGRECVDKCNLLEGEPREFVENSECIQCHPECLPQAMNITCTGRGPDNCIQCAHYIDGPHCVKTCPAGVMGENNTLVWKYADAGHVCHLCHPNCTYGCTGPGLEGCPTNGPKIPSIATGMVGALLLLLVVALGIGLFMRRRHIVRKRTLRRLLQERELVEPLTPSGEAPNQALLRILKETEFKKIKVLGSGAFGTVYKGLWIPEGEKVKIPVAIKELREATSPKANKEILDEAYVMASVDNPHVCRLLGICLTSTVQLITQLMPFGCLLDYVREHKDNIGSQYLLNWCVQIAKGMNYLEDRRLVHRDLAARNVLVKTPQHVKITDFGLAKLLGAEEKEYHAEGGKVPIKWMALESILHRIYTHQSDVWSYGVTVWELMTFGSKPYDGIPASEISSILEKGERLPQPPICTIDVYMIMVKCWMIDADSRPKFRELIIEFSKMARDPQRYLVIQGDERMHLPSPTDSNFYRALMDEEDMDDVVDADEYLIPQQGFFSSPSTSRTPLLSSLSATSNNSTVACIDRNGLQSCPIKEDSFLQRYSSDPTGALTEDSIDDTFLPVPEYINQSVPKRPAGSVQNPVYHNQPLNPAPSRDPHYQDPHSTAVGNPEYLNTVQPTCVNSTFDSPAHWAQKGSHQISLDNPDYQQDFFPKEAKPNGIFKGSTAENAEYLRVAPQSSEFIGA

Compound | IC50 [1] | IC50 [2] | Ki [2] | IC50 [3] | IC50 [4] | IC50 [5] | IC50 [6] | IC50 ([6]; read-out: IC50) [nM] | Ki ([6]; read-out: Ki) [nM]
CCN(CC)N=O [N-NITROSODIETHYLAMINE] | Not Active | Not Active | Not Active | Not Active | Not Active | Not Active | Not Active |  | 
CCC(C)(C)C(=O)O[C@H]1C[C@@H](C)C=C2C=C[C@H](C)[C@H](CC[C@@H]3C[C@@H](O)CC(=O)O3)[C@H]21 [SIMVASTATIN] | Not Active | Not Active | Not Active | Not Active | Not Active | Not Active | Not Active |  | 
CN1C[C@H](CNC(=O)OCc2ccccc2)C[C@@H]2c3cccc4c3c(cn4C)C[C@H]21 [METERGOLINE] | Not Active | Not Active | Not Active | Not Active | Not Active | Not Active |  | 19 | 11
CCN(CC)CCNC(=O)c1cc(Cl)c(N)cc1OC [METOCLOPRAMIDE] | Not Active | Not Active | Not Active | Not Active | Not Active | Not Active | Not Active |  | 
Cc1ccc(Cl)c(Nc2ccccc2C(=O)O)c1Cl [MECLOFENAMIC ACID] | Not Active | Not Active | Not Active | Not Active | Not Active | Not Active | Not Active |  | 
CO[C@@]12[C@H](COC(N)=O)C3=C(C(=O)C(C)=C(N)C3=O)N1C[C@@H]1N[C@@H]12 [MITOMYCIN] | Not Active | Not Active | Not Active | Not Active | Not Active | Not Active | Not Active |  | 
Cc1[nH]c(=O)c(C#N)cc1-c1ccncc1 [MILRINONE] | Not Active | Not Active | Not Active | Not Active | Not Active | Not Active | Not Active |  | 
O=[As][O-].[Na+] [SODIUM ARSENITE] | Not Active | Not Active | Not Active | Not Active | Not Active | Not Active | Not Active |  | 
CCOC(=O)C1=C(C)NC(C)=C(C(=O)OCC)C1c1ccccc1/C=C/C(=O)OC(C)(C)C [LACIDIPINE] | Not Active | Not Active | Not Active | Not Active | Not Active | Not Active | Not Active |  | 
O=C(OC[C@H]1O[C@@H](OC(=O)c2cc(O)c(O)c(OC(=O)c3cc(O)c(O)c(O)c3)c2)[C@H](OC(=O)c2cc(O)c(O)c(OC(=O)c3cc(O)c(O)c(O)c3)c2)[C@@H](OC(=O)c2cc(O)c(O)c(OC(=O)c3cc(O)c(O)c(O)c3)c2)[C@@H]1OC(=O)c1cc(O)c(O)c(OC(=O)c2cc(O)c(O)c(O)c2)c1)c1cc(O)c(O)c(OC(=O)c2cc(O)c(O)c(O)c2)c1 [TANNIC ACID] | Not Active | Not Active | Not Active | Not Active | Not Active | Not Active | Not Active |  | 
CC#C[C@]1(O)CC[C@H]2[C@@H]3CCC4=CC(=O)CCC4=C3[C@@H](c3ccc(N(C)C)cc3)C[C@@]21C [MIFEPRISTONE] | Not Active | Not Active | Not Active | Not Active | Not Active | Not Active | Not Active |  | 
CC(O)C(=O)O (centres undefined) [LACTIC ACID] | Not Active | Not Active | Not Active | Not Active | Not Active | Not Active | Not Active |  | 
Cc1ccnc(NS(=O)(=O)c2ccc(N)cc2)n1 [SULFAMERAZINE] | Not Active | Not Active | Not Active | Not Active | Not Active | Not Active | Not Active |  | 
CC(C)(C)NC[C@H](O)COc1cccc2c1CCCC2=O [LEVOBUNOLOL] | Not Active | Not Active | Not Active | Not Active | Not Active | Not Active | Not Active |  | 
